Reference: patent US8367666B2 (priority 2004, dated 2013)
Like-named read-outs stand apart in the source and are kept apart here.

Legend:
CB1 receptor [1] = biological target: T1, CB1 receptor (Homo sapiens, UniProt P21554); assay: cAMP formation inhibition experiment through a cannabinoid receptor (forskolin stimulation), CB1; assay type: cell-based; set-up: expressed in transfected cells; host or cells: CHO cells
Protocol: A compound being tested was added in the CHO cell which had mad human CB1 or CB2 receptor reveal and incubated for 15 minutes, and then forskolin (the final concentration 4 μM, and manufactured by SIGMA Corp.) was added and the mixture was incubated for 20 minutes. After the reaction had been stopped by adding 1M hydrochloric acid, the amount of cAMP in the supernatant was measured with the use of Cyclic AMP kit (made by the CIS Diagnostic Corp.).

CB2 receptor [2] = biological target: T2, CB2 receptor (Homo sapiens, UniProt P34972); assay: Human cannabinoid receptor bonding inhibition test ([3H]CP55940), CB2; assay type: binding; set-up: expressed in transfected cells; membrane fraction
T2 sequence (P34972 whole entry): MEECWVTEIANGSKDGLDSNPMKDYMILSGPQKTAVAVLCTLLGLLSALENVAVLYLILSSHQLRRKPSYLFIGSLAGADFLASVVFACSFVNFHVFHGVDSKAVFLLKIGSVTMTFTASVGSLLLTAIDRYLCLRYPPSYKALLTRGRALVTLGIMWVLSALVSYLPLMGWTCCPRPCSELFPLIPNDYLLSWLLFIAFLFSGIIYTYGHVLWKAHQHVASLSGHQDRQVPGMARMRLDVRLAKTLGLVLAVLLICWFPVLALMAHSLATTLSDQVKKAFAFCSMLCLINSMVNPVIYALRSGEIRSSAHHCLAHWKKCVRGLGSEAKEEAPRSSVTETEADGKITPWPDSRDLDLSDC

[3] = test system: scratching action induced by Compound 48/80; assay: Anti-pruritic activity test by application (Compound 48/80 scratching); assay type: in vivo, mouse (Crj:CD-1 (ICR)); settings: Mus musculus, topical, read-out: Itching inhibition ratio % (Concentration %)
Protocol: 1) Preparation of the compound and the reagent: The compound being tested was dissolved in acetone (SIGMA). Compound 48/80 (SIGMA) was dissolved in physiological saline (m by Otsuka Pharmaceutical Co., Ltd.) so as to be 60 μg/mL.
2) Animals: Female Crj: CD-1 (ICR) mice of 6 to 10 age in week (Japan Charles Liver) were used as laboratory animals. The animals were fed in the barrier breeding room where […] in room temperature, 30 to 70% in humidity, and the light and shade condition existed every 12 hours and feed (CE-2: Japan Crea) and the drinking water were freely taken. The hair of dorsa (from the cervical region of the back to the center of the back) of the animals were cut with a hair clipper two days or more before the anti-pruritic activity is evaluated, those with no wound, rubefaction, and thickening of the skin on the dehaired part were chosen and supplied to the experiment on the day of the evaluation. 3) Evaluation procedures: The acetone solution of the compound being tested was applied by 50 μL on the dehaired parts of the mice with a pipeter. On the mice of the control group, 50 μL of acetone was applied. The 15 minutes later, 50 μL (corresponding to 3 μg) of Compound 48/80 solution was injected intradermally in the compound applied parts with the use of a injector (Terumo Corporation), the mice were individually put in five observation cages made of acrylate resin at once, and the scratching action (action of scratching the injection part by the hind leg) frequency during 30 minutes was measured. The evaluation was carried out in one group of 5 to 7 mice. 4) Data processing: The experiment results were shown by the mean values. The test of the significant difference of the compound applying group to the control group was conducted with Welch's t-test, and p<0.05 was assumed to be significant.

CB1 receptor [4] = biological target: T1, CB1 receptor; assay: Human cannabinoid receptor bonding inhibition test ([3H]CP55940), CB1; assay type: binding; set-up: expressed in transfected cells; membrane fraction
CB2 receptor [5] = biological target: T2, CB2 receptor; assay: cAMP formation inhibition experiment through a cannabinoid receptor (forskolin stimulation), CB2; assay type: cell-based; set-up: expressed in transfected cells; host or cells: CHO cells
[6] = read-out: Agonist activity (nM) CB1
[7] = [3H]CP55940 0.5 nM, membrane preparation of CHO cells expressing CB1, Ki calculated from IC50, read-out: Binding activity (nM) CB1
[8] = [3H]CP55940 0.5 nM, membrane preparation of CHO cells expressing CB2, Ki calculated from IC50, read-out: Binding activity (nM) CB2
[9] = read-out: Agonist activity (nM) CB2
[10] = read-out: Binding activity (nM) CB1

T1 sequence (P21554 whole entry): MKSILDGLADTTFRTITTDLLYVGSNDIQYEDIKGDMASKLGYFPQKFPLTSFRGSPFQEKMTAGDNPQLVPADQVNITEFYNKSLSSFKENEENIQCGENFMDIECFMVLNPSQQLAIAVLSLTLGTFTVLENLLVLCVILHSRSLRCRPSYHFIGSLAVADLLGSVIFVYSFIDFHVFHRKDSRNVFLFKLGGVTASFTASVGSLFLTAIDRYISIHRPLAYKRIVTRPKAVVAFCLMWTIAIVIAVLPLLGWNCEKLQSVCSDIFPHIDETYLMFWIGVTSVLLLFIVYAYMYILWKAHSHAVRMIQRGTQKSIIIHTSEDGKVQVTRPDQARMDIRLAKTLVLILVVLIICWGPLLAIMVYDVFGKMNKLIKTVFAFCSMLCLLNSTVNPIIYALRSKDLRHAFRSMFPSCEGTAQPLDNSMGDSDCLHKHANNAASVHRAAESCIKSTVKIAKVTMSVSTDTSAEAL

## COC(=O)[C@@H](NC(=O)c1cc2c(n(Cc3ccc(F)cc3)c1=O)CCCCCC2)C(C)C [Compound I-253]
CB1 receptor [1]; [6]
  IC50: < 2 nM
CB2 receptor [2]
  Ki: < 2 nM
[3]
  inhibition in vivo at 1.5 %: 70%
CB1 receptor [4]
  Ki: < 2 nM

## CCCc1c(CC)cc(C(=O)N[C@H](C(=O)OC)C(C)C)c(=O)n1CC1CCCCC1 [Compound I-133]
CB1 receptor [1]; [6]
  IC50: 4 nM
CB2 receptor [2]
  Ki: < 2 nM
[3]
  inhibition in vivo at 0.5 %: 56%
CB1 receptor [4]
  Ki: 5 nM

## CCCCn1c2c(cc(C(=O)NC3(C(=O)O)CCCCCCCCC3)c1=O)CCCCCC2 [Compound X-232]
CB1 receptor [1]
  IC50: > 2000 nM
CB2 receptor [2]
  Ki: 15 nM
CB2 receptor [5]
  IC50: 29 nM
CB1 receptor [4]; [7]
  Ki: > 2000 nM

## CCCCn1c2c(cc(C(=O)NC(CC)(CC)CC(=O)O)c1=O)CCCCCC2 [Compound X-128]
CB1 receptor [1]
  IC50: 152 nM
CB2 receptor [2]
  Ki: 10 nM
CB2 receptor [5]
  IC50: 3 nM
CB1 receptor [4]; [7]
  Ki: 608 nM

## CCc1c(C)cc(C(=O)NC2(CC(=O)O)CCCC2)c(=O)n1Cc1ccc(F)cc1 [Compound X-234]
CB1 receptor [1]
  IC50: 375 nM
CB2 receptor [2]
  Ki: 4 nM
CB2 receptor [5]
  IC50: 6.1 nM
CB1 receptor [4]; [7]
  Ki: 482 nM

## CCCCn1c2c(cc(C(=O)NCc3ccccc3)c1=O)CCCCCC2 [Compound 4-101, reference compound]
CB2 receptor [2]
  Ki: 1.9 nM
[3]
  inhibition in vivo at 5 %: 7.5%

## CC(C)OC(=O)C(C)(C)NC(=O)c1cc2c(n(CC3CCCCC3)c1=O)CCCCCC2 [Compound I-301]
CB1 receptor [1]; [6]
  IC50: < 2 nM
CB2 receptor [2]
  Ki: < 2 nM
[3]
  inhibition in vivo at 0.5 %: 39%
CB1 receptor [4]
  Ki: < 2 nM

## CCCCn1c2c(cc(C(=O)NC(CCC(=O)O)CC(C)C)c1=O)CCCCCC2 (stereo not shown) [Compound X-202]
CB1 receptor [1]
  IC50: > 2000 nM
CB2 receptor [2]
  Ki: 46 nM
CB2 receptor [5]
  IC50: 81 nM
CB1 receptor [4]; [7]
  Ki: 1180 nM

## CN(CCO)C(=O)C(C)(C)NC(=O)c1cc2c(n(CC3CCCCC3)c1=O)CCCCCC2 [Compound I-019, 1-cyclohexylmethyl-2-oxo-1,2,5,6,7,8,9,10-octahydro-cycloocta[b]pyridine-3-carboxylic acid {1-[(2-hydroxyethyl)-methyl-carbamoyl]-1-methyl-ethyl}-amide]
CB1 receptor [1]; [6]
  IC50: 8.1 nM
CB2 receptor [2]
  Ki: < 2 nM
[3]
  inhibition in vivo at 1 %: 74%
CB1 receptor [4]; [7]
  Ki: 2.9 nM

## CCCCn1c2c(cc(C(=O)NC3(CC(=O)O)CCCCC3)c1=O)CCCCCC2 [Compound X-157]
CB1 receptor [1]
  IC50: 268 nM
CB2 receptor [2]
  Ki: 3.4 nM
CB2 receptor [5]
  IC50: < 2 nM
CB1 receptor [4]; [7]
  Ki: 270 nM

## O=C(NC(C(=O)O)c1ccco1)c1cc2c(n(CC3CCCCC3)c1=O)CCCCCC2 (stereo not shown) [Compound I-530]
CB1 receptor [1]; [6]
  IC50: 305 nM
CB2 receptor [2]
  Ki: < 2 nM
[3]
  inhibition in vivo at 2 %: 74%
CB1 receptor [4]
  Ki: 7 nM

## CCCCn1c2c(cc(C(=O)NC3CCCCC3)c1=O)CCCCCC2 [Compound 10-035, reference compound]
CB2 receptor [2]
  Ki: 0.2 nM
[3]
  inhibition in vivo at 5 %: 22%
CB1 receptor [4]
  Ki: 19 nM

## O=C(NC1(C(=O)O)CCCCC1)c1cc2c(n(Cc3ccc(F)c(F)c3)c1=O)CCCCCC2 [XI-017]
CB1 receptor [1]
  IC50: 127 nM
CB2 receptor [2]
  Ki: 6.6 nM
CB2 receptor [5]
  IC50: 11 nM
CB1 receptor [4]; [7]
  Ki: 441 nM

## CCc1c(C)cc(C(=O)NC2(C(=O)O)CCCCC2)c(=O)n1Cc1ccc(F)cc1 [Compound I-493]
CB2 receptor [2]; [8]
  Ki: 36 nM
CB2 receptor [5]; inhibition of forskolin (4 μM)-stimulated cAMP formation, CHO cells expressing human CB2, read-out: Agonist activity (nM) CB2
  IC50: 24 nM
CB1 receptor [4]
  Ki: > 2000 nM

## CCc1c(C)cc(C(=O)NC2(C(=O)O)CCCCCCC2)c(=O)n1Cc1ccc(F)cc1 [Compound X-239]
CB1 receptor [1]
  IC50: > 2000 nM
CB2 receptor [2]
  Ki: 10 nM
CB2 receptor [5]
  IC50: 3.6 nM
CB1 receptor [4]; [7]
  Ki: 1420 nM

## CCc1c(C)cc(C(=O)NC2(C(=O)O)CCCCCCCCC2)c(=O)n1Cc1ccc(F)cc1 [Compound X-231]
CB1 receptor [1]
  IC50: > 2000 nM
CB2 receptor [2]
  Ki: 38 nM
CB2 receptor [5]
  IC50: 35 nM
CB1 receptor [4]; [7]
  Ki: > 2000 nM

## O=C(O)C1=C(NC(=O)c2cc3c(n(CC4CCCCC4)c2=O)CCCCCC3)CCCC1 [Compound X-126]
CB1 receptor [1]; [6]
  IC50: 131 nM
CB2 receptor [2]
  Ki: 31 nM
CB2 receptor [5]
  IC50: 35 nM
CB1 receptor [4]
  Ki: 873 nM

## CCc1c(C)cc(C(=O)Nc2nc(CC(=O)O)cs2)c(=O)n1Cc1ccc(F)cc1 [Compound X-222]
CB1 receptor [1]
  IC50: > 2000 nM
CB2 receptor [2]
  Ki: 43 nM
CB2 receptor [5]
  IC50: 57 nM
CB1 receptor [4]; [7]
  Ki: 1620 nM

## CCCCn1c2c(cc(C(=O)N[C@H](CC(=O)O)CC(C)C)c1=O)CCCCCC2 [Compound X-138]
CB1 receptor [1]
  IC50: > 2000 nM
CB2 receptor [2]
  Ki: 42 nM
CB2 receptor [5]
  IC50: 30 nM
CB1 receptor [4]; [7]
  Ki: > 2000 nM

## CCCCn1c(CCC)c(CC)cc(C(=O)NC2(C(=O)O)CCCCCC2)c1=O [Compound X-241]
CB1 receptor [1]
  IC50: > 2000 nM
CB2 receptor [2]
  Ki: 57 nM
CB2 receptor [5]
  IC50: 26 nM
CB1 receptor [4]; [7]
  Ki: > 2000 nM

## CCc1c(C)cc(C(=O)Nc2nc(CC(=O)O)ns2)c(=O)n1CC1CCCCC1 [Compound X-133]
CB1 receptor [1]
  IC50: > 2000 nM
CB2 receptor [2]
  Ki: 5.5 nM
CB2 receptor [5]
  IC50: < 2 nM
CB1 receptor [4]; [7]
  Ki: > 2000 nM

## CCCCn1c2c(cc(C(=O)NC3(CC(=O)O)CCCC3)c1=O)CCCCCC2 [Compound X-235]
CB1 receptor [1]; [6]
  IC50: 270 nM
CB2 receptor [2]
  Ki: 3.7 nM
CB2 receptor [5]
  IC50: 4.7 nM
CB1 receptor [4]
  Ki: 950 nM

## CCc1c(C)cc(C(=O)NC2(C(=O)O)CCCCC2)c(=O)n1Cc1ccc(F)c(F)c1 [XI-027]
CB1 receptor [1]
  IC50: > 2000 nM
CB2 receptor [2]
  Ki: 54 nM
CB2 receptor [5]; [9]
  IC50: 209 nM
CB1 receptor [4]; [10]
  Ki: 1360 nM

## CCCCn1c(CCC)c(CC)cc(C(=O)NC2(CC(=O)O)CCCC2)c1=O [Compound X-233]
CB1 receptor [1]
  IC50: > 2000 nM
CB2 receptor [2]
  Ki: 24 nM
CB2 receptor [5]
  IC50: 15 nM
CB1 receptor [4]; [7]
  Ki: > 2000 nM

## CCc1c(C)cc(C(=O)Nc2nc(CC(=O)O)cs2)c(=O)n1Cc1ccc(F)c(F)c1 [XI-025]
CB1 receptor [1]
  IC50: > 2000 nM
CB2 receptor [2]
  Ki: 54 nM
CB2 receptor [5]; [9]
  IC50: 209 nM
CB1 receptor [4]; [10]
  Ki: 1360 nM

## CCc1c(C)cc(C(=O)NCC2(CC(=O)O)CCCCC2)c(=O)n1Cc1ccc(F)cc1 [Compound X-197]
CB1 receptor [1]; [6]
  IC50: 708 nM
CB2 receptor [2]
  Ki: 41 nM
CB2 receptor [5]
  IC50: 7.2 nM
CB1 receptor [4]
  Ki: 1260 nM

## O=C(NC1(C(=O)O)CCCCCCC1)c1cc2c(n(CC3CCCCC3)c1=O)CCCCCC2 [Compound X-240]
CB1 receptor [1]; inhibition of forskolin (4 μM)-stimulated cAMP formation, CHO cells expressing human CB1, read-out: Agonist activity (nM) CB1
  IC50: 468 nM
CB2 receptor [2]; [8]
  Ki: 6.2 nM
CB2 receptor [5]
  IC50: < 2 nM
CB1 receptor [4]; [7]
  Ki: 793 nM

## CCCCn1c(CCC)c(CC)cc(C(=O)NC2(CC(=O)O)CCCCC2)c1=O [Compound X-174]
CB1 receptor [1]
  IC50: > 2000 nM
CB2 receptor [2]
  Ki: 8.9 nM
CB2 receptor [5]
  IC50: 9.8 nM
CB1 receptor [4]; [7]
  Ki: > 2000 nM

## CCCCn1c(CCC)c(CC)cc(C(=O)NC(CC)(CC)CC(=O)O)c1=O [Compound X-196]
CB1 receptor [1]
  IC50: > 2000 nM
CB2 receptor [2]
  Ki: 31 nM
CB2 receptor [5]
  IC50: 45 nM
CB1 receptor [4]; [7]
  Ki: > 2000 nM
